Test results: PubChem BioAssay AID1963966 (Molecular Pharmacology Branch, DTP, NCI, 2024)

Tested on: 935938-334-R-J1-PDC spheroids with HUVEC/MSC, viability
Assay: Anticancer human tumor 935938-334-R-J1-PDC patient-derived small intestine adenocarcinoma cell line growth inhibition [PI3K]
Conditions: for IC50: curve of first compound; for viability, T/C: stronger effect = lower value
In short: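 Complex 3D spheroids (cancer cells + endothelial HUVEC + mesenchymal stem cells); drug pairs of targeted agent x inavolisib/alpelisib/duvelisib/copanlisib; half-log series from ~Cmax, max 10 microM if Cmax unknown; endpoint viability.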

[1] = second compound 0.0316 µM, first compound 0.0316 µM
[2] = second compound 0.0316 µM, first compound 0.1 µM
[3] = second compound 0.0316 µM, first compound 0.316 µM
[4] = second compound 0.0316 µM, first compound 1 µM
[5] = second compound 0.0316 µM, first compound 3.16 µM
[6] = second compound 0.0316 µM, first compound 10 µM
[7] = second compound 0.1 µM, first compound 0.0316 µM
[8] = second compound 0.1 µM, first compound 0.1 µM
[9] = second compound 0.1 µM, first compound 0.316 µM
[10] = second compound 0.1 µM, first compound 1 µM
[11] = second compound 0.1 µM, first compound 3.16 µM
[12] = second compound 0.1 µM, first compound 10 µM
[13] = second compound 0.316 µM, first compound 0.0316 µM
[14] = second compound 0.316 µM, first compound 0.1 µM
[15] = second compound 0.316 µM, first compound 0.316 µM
[16] = second compound 0.316 µM, first compound 1 µM
[17] = second compound 0.316 µM, first compound 3.16 µM
[18] = second compound 0.316 µM, first compound 10 µM
[19] = second compound 1 µM, first compound 0.0316 µM
[20] = second compound 1 µM, first compound 0.1 µM
[21] = second compound 1 µM, first compound 0.316 µM
[22] = second compound 1 µM, first compound 1 µM
[23] = second compound 1 µM, first compound 3.16 µM
[24] = second compound 1 µM, first compound 10 µM
[25] = second compound 3.16 µM, first compound 0.0316 µM
[26] = second compound 3.16 µM, first compound 0.1 µM
[27] = second compound 3.16 µM, first compound 0.316 µM
[28] = second compound 3.16 µM, first compound 1 µM
[29] = second compound 3.16 µM, first compound 3.16 µM
[30] = second compound 3.16 µM, first compound 10 µM
[31] = second compound 10 µM, first compound 0.0316 µM
[32] = second compound 10 µM, first compound 0.1 µM
[33] = second compound 10 µM, first compound 0.316 µM
[34] = second compound 10 µM, first compound 1 µM
[35] = second compound 10 µM, first compound 3.16 µM
[36] = second compound 10 µM, first compound 10 µM
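Note: compound exposure lasted seven days before viability was read.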
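Throughout, for viability, T/C: percent of vehicle DMSO treated spheroid viability so 100% = untreated.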

C[C@@H](NC(=O)c1ncnc(N)c1Cl)c1ncc(C(=O)Nc2cc(C(F)(F)F)c(Cl)cn2)s1 + Cc1nc(NC(=O)N2CCCC2C(N)=O)sc1-c1ccnc(C(C)(C)C(F)(F)F)c1
IC50 (second compound 0.0316 µM): > 10000 nM | IC50 (second compound 0.1 µM): > 10000 nM | IC50 (second compound 0.316 µM): > 10000 nM | IC50 (second compound 1 µM): > 10000 nM | IC50 (second compound 3.16 µM): 6670 nM | IC50 (second compound 10 µM): 272 nM | viability, T/C [1]: 112% | viability, T/C [2]: 100% | viability, T/C [3]: 98.7% | viability, T/C [4]: 88.1% | viability, T/C [5]: 90.7% | viability, T/C [6]: 81.6% | viability, T/C [7]: 94.1% | viability, T/C [8]: 108% | viability, T/C [9]: 101% | viability, T/C [10]: 115% | viability, T/C [11]: 95.5% | viability, T/C [12]: 68.6% | viability, T/C [13]: 104% | viability, T/C [14]: 108% | viability, T/C [15]: 109% | viability, T/C [16]: 87.8% | viability, T/C [17]: 89.8% | viability, T/C [18]: 78% | viability, T/C [19]: 105% | viability, T/C [20]: 80.4% | viability, T/C [21]: 87.4% | viability, T/C [22]: 89.5% | viability, T/C [23]: 79.9% | viability, T/C [24]: 68.2% | viability, T/C [25]: 53.6% | viability, T/C [26]: 55.6% | viability, T/C [27]: 79.6% | viability, T/C [28]: 62% | viability, T/C [29]: 61.9% | viability, T/C [30]: 31.2% | viability, T/C [31]: 50.6% | viability, T/C [32]: 63.9% | viability, T/C [33]: 41.4% | viability, T/C [34]: 44.5% | viability, T/C [35]: 37.2% | viability, T/C [36]: 22.8%

Cn1ncc(Cl)c1-c1cc(C(=O)NC(CN)Cc2cccc(F)c2)sc1Cl (stereo unspecified) + Cc1nc(NC(=O)N2CCCC2C(N)=O)sc1-c1ccnc(C(C)(C)C(F)(F)F)c1
IC50 (second compound 0.0316 µM): 3010 nM | IC50 (second compound 0.1 µM): 743 nM | IC50 (second compound 0.316 µM): 776 nM | IC50 (second compound 1 µM): 266 nM | IC50 (second compound 3.16 µM): 144 nM | IC50 (second compound 10 µM): < 31.6 nM | viability, T/C [1]: 83.4% | viability, T/C [2]: 87.5% | viability, T/C [3]: 61.9% | viability, T/C [4]: 67.4% | viability, T/C [5]: 38.1% | viability, T/C [6]: 52.8% | viability, T/C [7]: 100% | viability, T/C [8]: 77.2% | viability, T/C [9]: 60.4% | viability, T/C [10]: 45.9% | viability, T/C [11]: 37% | viability, T/C [12]: 24.3% | viability, T/C [13]: 90.7% | viability, T/C [14]: 67.3% | viability, T/C [15]: 60.6% | viability, T/C [16]: 45.1% | viability, T/C [17]: 43.3% | viability, T/C [18]: 26.8% | viability, T/C [19]: 48.2% | viability, T/C [20]: 62.4% | viability, T/C [21]: 42.6% | viability, T/C [22]: 46.9% | viability, T/C [23]: 35.7% | viability, T/C [24]: 23.8% | viability, T/C [25]: 53.5% | viability, T/C [26]: 62.5% | viability, T/C [27]: 34.4% | viability, T/C [28]: 38% | viability, T/C [29]: 27.1% | viability, T/C [30]: 22.4% | viability, T/C [31]: 37.9% | viability, T/C [32]: 35.8% | viability, T/C [33]: 39.2% | viability, T/C [34]: 39% | viability, T/C [35]: 28.1% | viability, T/C [36]: 26.7%

Cn1ncnc1[C@H]1c2n[nH]c(=O)c3cc(F)cc(c23)N[C@@H]1c1ccc(F)cc1 + Cc1nc(NC(=O)N2CCCC2C(N)=O)sc1-c1ccnc(C(C)(C)C(F)(F)F)c1
IC50 (second compound 0.0316 µM): > 100 nM | IC50 (second compound 0.1 µM): > 100 nM | IC50 (second compound 0.316 µM): > 100 nM | IC50 (second compound 1 µM): > 100 nM | IC50 (second compound 3.16 µM): 16.1 nM | IC50 (second compound 10 µM): < 0.316 nM | viability, T/C (second compound 0.0316 µM, first compound 0.000316 µM): 83.6% | viability, T/C (second compound 0.0316 µM, first compound 0.001 µM): 95.8% | viability, T/C (second compound 0.0316 µM, first compound 0.00316 µM): 112% | viability, T/C (second compound 0.0316 µM, first compound 0.01 µM): 87.8% | viability, T/C [1]: 72.1% | viability, T/C [2]: 99% | viability, T/C (second compound 0.1 µM, first compound 0.000316 µM): 81% | viability, T/C (second compound 0.1 µM, first compound 0.001 µM): 98.7% | viability, T/C (second compound 0.1 µM, first compound 0.00316 µM): 99.9% | viability, T/C (second compound 0.1 µM, first compound 0.01 µM): 67.5% | viability, T/C [7]: 84.2% | viability, T/C [8]: 83.5% | viability, T/C (second compound 0.316 µM, first compound 0.000316 µM): 89.1% | viability, T/C (second compound 0.316 µM, first compound 0.001 µM): 67.3% | viability, T/C (second compound 0.316 µM, first compound 0.00316 µM): 78% | viability, T/C (second compound 0.316 µM, first compound 0.01 µM): 61.4% | viability, T/C [13]: 69.7% | viability, T/C [14]: 78.7% | viability, T/C (second compound 1 µM, first compound 0.000316 µM): 62.2% | viability, T/C (second compound 1 µM, first compound 0.001 µM): 70% | viability, T/C (second compound 1 µM, first compound 0.00316 µM): 67.2% | viability, T/C (second compound 1 µM, first compound 0.01 µM): 57.6% | viability, T/C [19]: 60% | viability, T/C [20]: 55.4% | viability, T/C (second compound 3.16 µM, first compound 0.000316 µM): 63.1% | viability, T/C (second compound 3.16 µM, first compound 0.001 µM): 53.7% | viability, T/C (second compound 3.16 µM, first compound 0.00316 µM): 46.6% | viability, T/C (second compound 3.16 µM, first compound 0.01 µM): 58.2% | viability, T/C [25]: 51.7% | viability, T/C [26]: 42% | viability, T/C (second compound 10 µM, first compound 0.000316 µM): 39% | viability, T/C (second compound 10 µM, first compound 0.001 µM): 38.7% | viability, T/C (second compound 10 µM, first compound 0.00316 µM): 43.8% | viability, T/C (second compound 10 µM, first compound 0.01 µM): 33% | viability, T/C [31]: 50.5% | viability, T/C [32]: 38.5%
